Where two headings read alike, the source gives them in different places. A value given as a limit tells only on which side of the number the result lay.

In test [1] the target is T1, CCKB receptor (Cavia porcellus, UniProt H0VZC5).
T1 sequence (H0VZC5 1-426): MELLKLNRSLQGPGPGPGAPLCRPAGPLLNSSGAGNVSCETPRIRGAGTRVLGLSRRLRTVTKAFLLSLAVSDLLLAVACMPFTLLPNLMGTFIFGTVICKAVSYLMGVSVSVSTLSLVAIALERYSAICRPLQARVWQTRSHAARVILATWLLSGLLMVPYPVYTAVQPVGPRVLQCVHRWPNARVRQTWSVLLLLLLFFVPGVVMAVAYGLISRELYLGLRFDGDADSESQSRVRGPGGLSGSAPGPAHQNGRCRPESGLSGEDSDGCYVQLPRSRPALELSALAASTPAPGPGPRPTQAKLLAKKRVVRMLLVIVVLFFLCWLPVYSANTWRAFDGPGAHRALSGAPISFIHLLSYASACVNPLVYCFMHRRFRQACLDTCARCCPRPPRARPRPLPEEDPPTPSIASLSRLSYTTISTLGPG
Kind of test: 125I-CCK-8 receptor binding assay, CCKB (guinea pig cerebral cortex). As to the method:
CCKA and CCKB receptor binding assays were performed, by using guinea pig cerebral cortex (CCKB) or rat pancreas (CCKA). […]. J. Pharmacol., 269, 249-254]. Pancreatic membranes were prepared in a similar way but by Charpentier et al [(1988), Cyclic cholecystokinin analogues with high selectivity for central receptors., Proc Natl Acad Sci USA, 85, 1968-1972]. The […] CCK binding assay: Tissues were homogenised in ice cold sucrose (0.32 M, 25 ml) for 15 strokes at 500 rpm and centrifuged at 13000 rpm for 10 mins. The supernatant was re-centrifuged at 13000 rpm for 20 mins. The resulting pellet was re-dispersed to the required volume of buffer at 500 rpm and stored in aliquots at […].
(§1) The samples were incubated {with membranes (0.1 mg/ml)} in 20 mM Hepes, 1 mM EGTA, 5 mM MgCl2, 150 mm NaCl, 0.25 mg/ml bacitracin at pH 6.5 for 2 hrs at RT and then […] by centrifugation at 1100 rpm for 5 minutes. The membrane pellets were washed twice with water and the bound radioactivity was measured in a Packard Cobra Auto-gamma counter (B5005). All binding assays were carried out with L-363, 260 as an internal non-specific standard. Controls (no compound) were also added. All samples were made in duplicate and repeated twice. All compounds were initially screened for percentage inhibition at 20 μM.

The target of test [2] is T2, CCKA receptor (Rattus norvegicus, UniProt P30551).
T2 construct: Pancreatic membranes were prepared in a similar way; from tissue; host or cells: rat pancreas membranes
T2 sequence (P30551 1-444): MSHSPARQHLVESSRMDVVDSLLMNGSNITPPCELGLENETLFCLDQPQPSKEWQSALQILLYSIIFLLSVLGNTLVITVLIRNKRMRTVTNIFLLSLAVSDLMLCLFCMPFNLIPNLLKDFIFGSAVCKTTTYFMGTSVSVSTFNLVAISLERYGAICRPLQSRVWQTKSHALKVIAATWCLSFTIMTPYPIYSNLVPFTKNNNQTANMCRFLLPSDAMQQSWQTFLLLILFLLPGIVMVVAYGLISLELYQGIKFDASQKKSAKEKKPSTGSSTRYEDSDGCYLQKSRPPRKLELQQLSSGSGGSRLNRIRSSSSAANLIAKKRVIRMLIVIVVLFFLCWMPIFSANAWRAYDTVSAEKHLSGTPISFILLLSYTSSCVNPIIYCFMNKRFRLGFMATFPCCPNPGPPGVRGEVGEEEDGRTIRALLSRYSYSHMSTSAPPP
Kind of test: 125I-CCK-8 receptor binding assay, CCKA (rat pancreas). The following applies: for Ratio CCKB:CCKA: ratio of IC50 values. On the procedure: CCKA and CCKB receptor binding assays were performed, by using guinea pig cerebral cortex (CCKB) or rat pancreas (CCKA). Male guinea pig brain tissues were prepared according to the modified method described by Saita et al [(1994), Characterization of YM022: its CCKB/gastrin receptor binding profile and antagonism to CCK-8-induced Ca2+ mobilization., Eur. J. Pharmacol., 269, 249-254]. Pancreatic membranes were prepared in a similar way but by Charpentier et al [(1988), Cyclic cholecystokinin analogues with high selectivity for central receptors., Proc Natl Acad Sci USA, 85, 1968-1972]. The […] CCK binding assay: Tissues were homogenised in ice cold sucrose (0.32 M, 25 ml) for 15 strokes at 500 rpm and centrifuged at 13000 rpm for 10 mins. The supernatant was re-centrifuged at 13000 rpm for 20 mins. The resulting pellet was re-dispersed to the required volume of buffer at 500 rpm and stored in aliquots at […].
as §1

Setting [3] is: IC50 CCKB, Table 4, alkylated oxazepam derivatives.

What is called IC50 is the point on the concentration scale where inhibition reaches its midpoint. In test [1] (setting [3]), `C#CCN1C(=O)C(O)N=C(c2ccccc2)c2cc(Cl)ccc21` (stereo not drawn) [Example 58, 7-chloro-3-hydroxy-5-phenyl-1-prop-2-ynyl-1,3-dihydro-2H-1,4-benzodiazepin-2-one] returned an IC50 of 960 nM.
In test [1] (IC50 CCKB, Table 2), `O=C1Nc2ccc(Cl)cc2C(c2ccccc2)=NC1NC1CCCCC1` (stereo not drawn) [Example 30, 7-chloro-3-(cyclohexylamino)-5-phenyl-1,3-dihydro-2H-1,4-benzodiazepin-2-one] had an IC50 of 10100 nM.
In the case of `COc1ccc(NC2N=C(c3ccccc3)c3cc(Cl)ccc3NC2=O)cc1` (stereo not drawn) [Example 43, 7-chloro-3-(4-methoxyanilino)-5-phenyl-1,3-dihydro-2H-1,4-benzodiazepin-2-one], the IC50 in test [1] (IC50 CCKB, Table 3) was more than 10000 nM; in test [2] (Table 3), not below 20000 nM.
As for `O=C1Nc2ccc(Cl)cc2C(c2ccccc2)=NC1Nc1ccccc1[N+](=O)[O-]` (stereo not drawn) [Example 35, 7-chloro-3-(2-nitroanilino)-5-phenyl-1,3-dihydro-2H-1,4-benzodiazepin-2-one], the IC50 in test [1] (IC50 CCKB, Table 3) was 7500 nM; in test [2] (Table 3) it was more than 20000 nM.
Turning to `O=C1Nc2ccc(Cl)cc2C(c2ccccc2)=NC1N1CCCc2ccccc21` (stereo not drawn) [Example 17, 7-chloro-3-[3,4-dihydroquinolin-1(2H)-yl]-5-phenyl-1,3-dihydro-2H-1,4-benzodiazepin-2-one], the IC50 in test [1] (IC50 CCKB, Table 2) is 7200 nM.
In the case of `O=C1Nc2ccc(Cl)cc2C(c2ccccc2)=NC1Nc1cccc([N+](=O)[O-])c1` (stereo not drawn) [Example 36], the IC50 in test [1] (IC50 CCKB, Table 3) came out at 6000 nM; in test [2], 11 nM. Further, the “Ratio CCKB:CCKA” value in test [2] (Table 3) was 545.
Compound `COc1cccc(NC2N=C(c3ccccc3)c3cc(Cl)ccc3NC2=O)c1` (stereo not drawn) [Example 42] came in with an IC50 in test [2] of 10 nM. In addition, the “Ratio CCKB:CCKA” value in test [2] (Table 3) worked out at 450.
In test [1] (CCKB IC50, Table 1), `O=C1Nc2ccc(Cl)cc2C(c2ccccc2)=NC1Nc1cccc(Cl)c1` (single isomer, unassigned) [Example 2] showed an IC50 of 320 nM.
On to `CC(=O)c1ccccc1NC1N=C(c2ccccc2)c2cc(Cl)ccc2NC1=O` (stereo not drawn) [Example 18, 3-(2 acetylanilino)-7-chloro-5-phenyl-1,3-dihydro-2H-1,4-benzodiazepin-2-one], for which, in test [1] (IC50 CCKB, Table 2), the IC50 came out at 8400 nM.
In test [1] (IC50 CCKB, Table 3), `O=C1Nc2ccc(Cl)cc2C(c2ccccc2)=NC1Nc1ccccc1` (stereo not drawn) [Example 53] displayed an IC50 of 4100 nM. Moreover, in test [2] (Table 3), the IC50 was 240 nM and the “Ratio CCKB:CCKA” value is recorded as 17.
In test [1] (setting [3]), `O=C1C(O)N=C(c2ccccc2)c2cc(Cl)ccc2N1Cc1ccccc1` (stereo not drawn) [Example 59, 7-chloro-3-hydroxy-5-phenyl-1-benzyl-1,3-dihydro-2H-1,4-benzodiazepin-2-one] displayed an IC50 of 760 nM.
For the compound `CCCNC1N=C(c2ccccc2)c2cc(Cl)ccc2NC1=O` (stereo not drawn) [Example 28, 3-(propylamino)-7-chloro-5-phenyl-1,3-dihydro-2H-1,4-benzodiazepin-2-one], the IC50 in test [1] (IC50 CCKB, Table 2) is 8900 nM.
`CCN(C1CCCCC1)C1N=C(c2ccccc2)c2cc(Cl)ccc2NC1=O` (stereo not drawn) [Example 34, 7-chloro-3-(ethylcyclohexylamino)-5-phenyl-1,3-dihydro-2H-1,4-benzodiazepin-2-one] showed an IC50 in test [1] (IC50 CCKB, Table 2) of more than 15000 nM.
In test [1] (IC50 CCKB), `Cc1ccc(NC2N=C(c3ccccc3)c3cc(Cl)ccc3NC2=O)cc1C` (stereo not drawn) [Example 31, 7-chloro-3-(3,4-dimethylanilino)-5-phenyl-1,3-dihydro-2H-1,4-benzodiazepin-2-one] registered an IC50 of 920 nM.
With `O=C1Nc2ccc(Cl)cc2C(c2ccccc2)=NC1N1CCCCC1` (stereo not drawn) [Example 32, 7-chloro-3-(piperidin-1-yl)-5-phenyl-1,3-dihydro-2H-1,4-benzodiazepin-2-one], in test [1] (IC50 CCKB, Table 2), the IC50 was more than 15000 nM.
Compound `COc1ccc(NC2N=C(c3ccccc3)c3cc(Cl)ccc3NC2=O)cc1OC` (stereo not drawn) [Example 20, 7-chloro-3-(3,4-dimethoxyanilino)-5-phenyl-1,3-dihydro-2H-1,4-benzodiazepin-2-one] showed an IC50 in test [1] (IC50 CCKB, Table 2) of 1200 nM.
`O=C(CN1C(=O)C(O)N=C(c2ccccc2)c2cc(Cl)ccc21)c1ccccc1` (stereo not drawn) [Example 62, 7-chloro-3-hydroxy-5-phenyl-1-phenacyl-1,3-dihydro-2H-1,4-benzodiazepin-2-one] yielded an IC50 in test [1] (setting [3]) of 200 nM.
For the compound `CN(Cc1ccccc1)C1N=C(c2ccccc2)c2cc(Cl)ccc2NC1=O` (stereo not drawn) [Example 25], the IC50 in test [1] (IC50 CCKB, Table 2) is 2900 nM.
Turning to `O=C1Nc2ccc(Cl)cc2C(c2ccccc2)=NC1N1CCOCC1` (stereo not drawn) [Example 11], the IC50 in test [1] (CCKB IC50, Table 1) stood at 2700 nM.
On the same count and under the same terms, next, `CN(Cc1ccccc1)C1N=C(c2ccccc2)c2cc(Cl)ccc2NC1=O` (single isomer, unassigned) [Example 6]: 860 nM.
Compound `CC(C)N(C1CCCCC1)C1N=C(c2ccccc2)c2cc(Cl)ccc2NC1=O` (stereo not drawn) [Example 33, 7-chloro-3-(isopropylcyclohexylamino)-5-phenyl-1,3-dihydro-2H-1,4-benzodiazepin-2-one] gave an IC50 in test [1] (IC50 CCKB, Table 2) of more than 15000 nM.
As for `Cc1c(NC2N=C(c3ccccc3)c3cc(Cl)ccc3NC2=O)c(=O)n(-c2ccccc2)n1C` (stereo not drawn) [Example 13], the IC50 in test [1] (Table 2, read-out: IC50 CCKB) was 9300 nM.
With `CCCCc1ccc(NC2N=C(c3ccccc3)c3cc(Cl)ccc3NC2=O)cc1` (stereo not drawn) [Example 3], in test [1] (CCKB IC50, Table 1), the IC50 worked out at 580 nM.
`O=C1Nc2ccc(Cl)cc2C(c2ccccc2)=NC1Nc1ccccc1` (stereo not drawn) [Example 22, 3-anilino-7-chloro-5-phenyl-1,3-dihydro-2H-1,4-benzodiazepin-2-one] displayed an IC50 in test [1] (IC50 CCKB, Table 2) of 4100 nM.
As to `CCOC(=O)N1C(=O)C(O)N=C(c2ccccc2)c2cc(Cl)ccc21` (stereo not drawn) [Example 61, 7-chloro-3-hydroxy-5-phenyl-1-ethoxycarbonyl-1,3-dihydro-2H-1,4-benzodiazepin-2-one], the IC50 in test [1] (setting [3]) came to 690 nM.
As to `COc1cccc(NC2N=C(c3ccccc3)c3cc(Cl)ccc3NC2=O)c1` (stereo not drawn) [Example 19, 7-chloro-3-(3-methoxyanilino)-5-phenyl-1,3-dihydro-2H-1,4-benzodiazepin-2-one], the IC50 in test [1] (IC50 CCKB, Table 2) was 1500 nM.
With `CC(C)N(C1CCCCC1)C1N=C(c2ccccc2)c2cc(Cl)ccc2NC1=O` (single isomer, unassigned) [Example 8], the IC50 in test [1] (IC50 CCKB) is 190 nM.
Take `O=C1Nc2ccc(Cl)cc2C(c2ccccc2)=NC1NCc1ccccc1` (stereo not drawn) [Example 23, 3-(benzylamino)-7-chloro-5-phenyl-1,3-dihydro-2H-1,4-benzodiazepin-2-one]: the IC50 in test [1] (IC50 CCKB, Table 2) was determined as 6000 nM.
Compound `Cc1ccc(NC2N=C(c3ccccc3)c3cc(Cl)ccc3NC2=O)cc1C` (stereo not drawn) [Example 4] returned an IC50 in test [1] (CCKB IC50, Table 1) of 660 nM.
In the case of `C=CCN1C(=O)C(O)N=C(c2ccccc2)c2cc(Cl)ccc21` (stereo not drawn) [Example 60, 7-chloro-3-hydroxy-5-phenyl-1-allyl-1,3-dihydro-2H-1,4-benzodiazepin-2-one], the IC50 in test [1] (setting [3]) worked out at 980 nM.
Turning to `COc1cc(NC2N=C(c3ccccc3)c3cc(Cl)ccc3NC2=O)cc(OC)c1C(C)=O` (stereo not drawn) [Example 21, 3-(4-acetyl-3,5-dimethoxyanilino)-7-chloro-5-phenyl-1,3-dihydro-2H-1,4-benzodiazepin-2-one], in test [1] (Table 2, read-out: IC50 CCKB), the IC50 turned out to be 5300 nM.
`CN(c1ccccc1)C1N=C(c2ccccc2)c2cc(Cl)ccc2NC1=O` (stereo not drawn) [Example 24, 7-chloro-3-(methylanilino)-5-phenyl-1,3-dihydro-2H-1,4-benzodiazepin-2-one] came in with an IC50 in test [1] (IC50 CCKB) of 150 nM.

Source of the values: patent US20070185094A1, “Novel 3-substitued-1,4-benzodiazepines” (ASTON UNIVERSITY, priority 2003, published 2007).
